These results are taken from patent US7919517B2, “Indazole derivatives” (Kyowa Hakko Kirin Co., Ltd., priority 2003, dated 2011).

Each structure is given as a SMILES string. Counter-ions that a name gives are not always drawn.

What all share (type): cell-based
Assay [1] deals with human acute myeloid leukemia cell line MV-4-11. Nature of the assay: Cytostatic activity on leukemia cell line MV-4-11 (WST-1). To be noted: Homo sapiens, MV4-11; 10 μmol/L, 72 hours, MV-4-11 cells; read-out: cytostatic rate MV-4-11 (%) (10 μmol/L). As to the method: (§1) The cytostatic rates of a test compound on human acute myeloid leukemia cell lines MV-4-11 and ML-1, and human chronic myeloid leukemia cell line K562 were determined in the following manner.
(§2) Each cell was cultured using Roswell Park Memorial Institute's Medium (RPMI) 1640 (Gibco, Catalog No. 11875-093) containing 10% fetal bovine serum (Gibco, Catalog No. 10437-028) and 1% penicillin/streptomycin (1:1) (Gibco, Catalog No. 15140-122). Each 80 μL of the MV-4-11 cell having a concentration of 7.5×10^4 cells/mL (or the ML-1 cell or K562 cell having a concentration of 2.5×10^4 cells/mL) was inoculated to wells of a TC MICROWELL 96U plate (Nalge Nunc International, Catalog No. 163320) and was cultured in a 5% carbon dioxide gas incubator at 37° C. for 4 hours. As a blank, only RPMI medium (80 μL) was added to a well. Each 20 μL of a solution of the test compound in dimethyl sulfoxide (DMSO) which was prepared to make the final concentration to 10 μmol/L, was added to the MV-4-11 cell, ML-1 cell and K562 cell, respectively. Each 20 μL of DMSO was added to the control well and the blank well to […]. After adding the test compound, the cells were incubated in a 5% carbon dioxide gas incubator at 37° C. for 72 hours. After adding 20 μL of WST-1 reagent {4-[3-(4-iodophenyl)-2-(4-nitrophenyl)-2H-5-tetrazolio]-1,3-benzene disulfonate sodium salt} (Roche Diagnostics K.K., Catalog No. 1644807) diluted to 50% with RPMI medium, the cells were further incubated at 37° C. for 2 hours. Then, the absorbances at 450 nm (reference wavelength: 690 nm) were determined with a microplate spectrophotometer SPECTRA max 340PC (Molecular Devices Corporation). The relative growth (%) of a well to which the test compound had been added was determined while setting the absorbance of a well to which not the test compound but DMSO alone had been added (control) at 100% and that of a well containing RPMI medium alone at 0%. The cytostatic rate (%) of the test compound was determined by subtracting the calculated relative growth from 100.

In assay [2] the test system is human acute myeloid leukemia cell line ML-1. Kind of assay: Cytostatic activity on leukemia cell line ML-1 (WST-1). As to conditions: Homo sapiens, ML1; 10 μmol/L, 72 hours, ML-1 cells; read-out: cytostatic rate ML-1 (%) (10 μmol/L). On the procedure: as §1, §2
On the technique in general: Tetrazolium assays rely on reduction of a dye to a coloured formazan, in cell work by metabolically active cells.

Assay [3] concerns human chronic myeloid leukemia cell line K562. Kind of assay: Cytostatic activity on leukemia cell line K562 (WST-1). As to conditions: Homo sapiens; 10 μmol/L, 72 hours, K562 cells; read-out: cytostatic rate K562 (%) (10 μmol/L). As to the method:
as §1, §2

For assay [4], the system named is human colon cancer cell line Colo205. Kind of assay: Cytostatic activity on solid carcinoma cell line Colo205 (WST-1). As to conditions: Homo sapiens, COLO 205; 10 μmol/L, 72 hours, Colo205 cells; read-out: cytostatic rate Colo205 (%) (10 μmol/L). On the procedure: as §2
The cytostatic rate of a test compound on the human colon cancer cell line Colo205 was determined in the following manner.
The cell was cultured using Roswell Park Memorial Institute's Medium (RPMI) 1640 (Gibco, Catalog No. 11875-093) containing 10% fetal bovine serum (Gibco, Catalog No. 10437-028) and 1% penicillin/streptomycin (1:1) (Gibco, Catalog No. 15140-122). Each 80 μL of the Colo205 having a concentration of 1.25×10^4 cells/mL was inoculated to wells of a TC MICROWELL 96F plate (Nalge Nunc International, Catalog No. 167008) and was cultured in a 5% carbon dioxide gas incubator at 37° C. for 24 hours. As a blank, only RPMI (80 μL) was added to a well. Each 20 μL of a solution of the test compound in DMSO which was prepared to make the final concentration to 10 μmol/L, was added to the Colo205 cell. Each 20 μL of DMSO was added to the control well and the blank well to […]. After adding the test compound, the cell was incubated in a 5% carbon dioxide gas incubator at 37° C. for 72 hours. The cytostatic rate (%) was then determined in the same way as the leukemia cell lines.

As for `CC(C)(O)CC(=O)N1CCN(C(=O)c2ccc(/C=C/c3n[nH]c4ccccc34)cc2)CC1` [Compound 90, (E)-4-(3-methyl-3-hydroxybutyryl)-1-{4-[2-(1H-indazol-3-yl)vinyl]benzoyl}piperazine], the inhibition at 10 µM is 98% in assay [1], 79% in assay [2], 85% in assay [3] and 88% in assay [4].
Regarding `CN(C)C(=O)C1CCN(C(=O)c2ccc(/C=C/c3n[nH]c4ccccc34)cc2)CC1` [Compound 92, (E)-N,N-dimethyl-1-{4-[2-(1H-indazol-3-yl)vinyl]benzoyl}piperidine-4-carboxamide], the inhibition at 10 µM came out at 98% in assay [1], 88% in assay [2], 89% in assay [3] and 89% in assay [4].
Take `Cc1cc(/C=C/c2n[nH]c3ccccc23)ccc1C(=O)N1CCNCC1` [Compound 95, (E)-1-{4-[2-(1H-indazol-3-yl)vinyl]-2-methylbenzoyl}piperazine dihydrochloride]: the inhibition at 10 µM in assay [1] turned out to be 96%; in assay [2], 70%; in assay [3] it was 93%; in assay [4], 86%.
For `COCCC(=O)N1CCN(C(=O)c2ccc(/C=C/c3n[nH]c4ccccc34)cc2)CC1` [Compound 98, (E)-4-(3-methoxypropionyl)-1-{4-[2-(1H-indazol-3-yl)vinyl]benzoyl}piperazine] the same measures were 98%, 79%, 89% and 88%.
Turning to `O=C(NC1CCN(C(=O)c2ccc(/C=C/c3n[nH]c4ccccc34)cc2)CC1)N1CCOCC1` [Compound 99, (E)-1-{4-[2-(1H-indazol-3-yl)vinyl]benzoyl}-4-(morpholinocarbonylamino)piperidine], the inhibition at 10 µM worked out at 97% in assay [1], 86% in assay [2], 94% in assay [3] and 95% in assay [4].
Regarding `C[C@H]1CN(C(=O)c2ccc(/C=C/c3n[nH]c4ccccc34)cc2)CCN1` [Compound 101, (S)-(E)-1-{4-[2-(1H-indazol-3-yl)vinyl]benzoyl}-3-methylpiperazine dihydrochloride], the inhibition at 10 µM in assay [1] was 99%; in assay [2], 77%; in assay [3], 92%; in assay [4], 87%.
For `O=C(c1ccc(/C=C/c2n[nH]c3ccccc23)cc1)N1CCN(CCO)CC1` [Compound 105, (E)-1-{4-[2-(1H-indazol-3-yl)vinyl]benzoyl}-4-(2-hydroxyethyl)piperazine] the same measures were 96%, 85%, 90% and 88%.
Consider `O=C(c1ccc(/C=C/c2n[nH]c3ccccc23)cc1)N1CCC(N2CCOCC2)CC1` [Compound 106, (E)-1-{4-[2-(1H-indazol-3-yl)vinyl]benzoyl}-4-morpholinopiperidine], for which the inhibition at 10 µM is 98% in assay [1], 58% in assay [2], 35% in assay [3] and 37% in assay [4].
For `CC(C)N1CCN(C(=O)c2ccc(/C=C/c3n[nH]c4ccccc34)cc2)CC1` [Compound 107, (E)-1-{4-[2-(1H-indazol-3-yl)vinyl]benzoyl}-4-isopropylpiperazine hydrochloride] the same measures were 98%, 77%, 91% and 84%.
For `CNCCNC(=O)c1ccc(/C=C/c2n[nH]c3ccccc23)cc1` [Compound 112, (E)-N-[2-(methylamino)ethyl]-4-[2-(1H-indazol-3-yl)vinyl]benzamide hydrochloride] the same measures were 98%, 83%, 81% and 88%.
For `CCC(C)N1CCN(C(=O)c2ccc(/C=C/c3n[nH]c4ccccc34)cc2)CC1=O` (stereo not drawn) [Compound 116, (E)-4-{4-[2-(1H-indazol-3-yl)vinyl]benzoyl}-1-(sec-butyl)piperazin-2-one hydrochloride], the inhibition at 10 µM in assay [1] amounted to 98%; in assay [2], 79%; in assay [3], 88%; in assay [4], 91%.
For `NC1CCN(C(=O)c2ccc(/C=C/c3n[nH]c4ccccc34)cc2)C1` (stereo not drawn) [Compound 122, (E)-1-{4-[2-(1H-indazol-3-yl)vinyl]benzoyl}-3-aminopyrrolidine dihydrochloride] the same measures were 98%, 79%, 93% and 89%.
Regarding `O=C(c1ccc(/C=C/c2n[nH]c3ccccc23)cc1)N1CCN(C(=O)[C@H]2CCNC2)CC1` [Compound 124, (S)-(E)-1-{4-[2-(1H-indazol-3-yl)vinyl]benzoyl}-4-(pyrrolidin-3-ylcarbonyl)piperazine dihydrochloride], the inhibition at 10 µM in assay [1] was 98%; in assay [2], 83%; in assay [3], 94%; in assay [4], 87%.
Take `CN(C)CC(=O)N1CCN(C(=O)c2ccc(/C=C/c3n[nH]c4ccccc34)cc2)CC1` [Compound 125, (E)-4-dimethylaminoacetyl-1-{4-[2-(1H-indazol-3-yl)vinyl]benzoyl}piperazine]: the inhibition at 10 µM in assay [1] turned out to be 98%; in assay [2], 79%; in assay [3], 91%; in assay [4] it was 86%.
Turning to `CCOCC(=O)N1CCN(C(=O)c2ccc(/C=C/c3n[nH]c4ccccc34)cc2)CC1` [Compound 128, (E)-4-ethoxyacetyl-1-{4-[2-(1H-indazol-3-yl)vinyl]benzoyl}piperazine], the inhibition at 10 µM turned out to be 98% in assay [1], 79% in assay [2], 87% in assay [3] and 88% in assay [4].
For `CC(C)(N)C(=O)N1CCN(C(=O)c2ccc(/C=C/c3n[nH]c4ccccc34)cc2)CC1` [Compound 131, (E)-4-(2-amino-2-methylpropionyl)-1-{4-[2-(1H-indazol-3-yl)vinyl]benzoyl}piperazine dihydrochloride] the same measures were 99%, 85%, 98% and 91%.
With `CN(C)C(=O)NC1CCN(C(=O)c2ccc(/C=C/c3n[nH]c4ccccc34)cc2)CC1` [Compound 132, (E)-4-dimethylcarbamoylamino-1-{4-[2-(1H-indazol-3-yl)vinyl]benzoyl}piperidine], the inhibition at 10 µM was 100% in assay [1], 88% in assay [2], 95% in assay [3] and 91% in assay [4].
As for `COCCN1CCN(C(=O)c2ccc(/C=C/c3n[nH]c4ccccc34)cc2)CC1=O` [Compound 134, (E)-4-{4-[2-(1H-indazol-3-yl)vinyl]benzoyl}-1-(2-methoxyethyl)piperazin-2-one hydrochloride], the inhibition at 10 µM in assay [1] is 100%; in assay [2], 88%; in assay [3], 91%; in assay [4], 91%.
